# Experimental data from paper PMC4619319, “A potent anti-inflammatory peptide from the salivary glands of horsefly” (Parasites & Vectors, 2015).
# Experiments:
# [1] = system: P-JNK2; assay: Western blot, LPS-induced P-JNK2 in peritoneal macrophages; format: cell-based, mouse; settings: 20 μg/mL peptide, 100 ng/mL LPS, 30 min, band density ratio to β-actin
# Protocol: (§1) Cells were treated with different concentrations of cecropin-TY1 (0, 5, 10, and 20 μg/mL) in the presence or absence of 100 ng/mL LPS (from E. coli 0111:B4, Sigma-Aldrich, USA). After 30-min incubation, cells were washed twice with ice-cold PBS and lysed with RIPA lysis buffer (Beyotime, China) on ice for 30 min according to our previous method. Protein concentration was quantified by BCA Protein Assay Kit (Thermo, Germany). About 40 μg protein was separated on a 10 % SDS-PAGE gel and transferred to a polyvinylidene difluoride membrane. The membrane was blocked by incubating with 5 % BSA (BD, USA) dissolved in Tris-buffered solution Tween-20 (TBST, 2.42 g/L Trisbase, 8 g/L NaCl, 0.1 % Tween 20, pH 7.6) for 2 h at room temperature. The membrane was then incubated with primary antibodies against ERK, phospho-ERK, p38, phospho-p38, JNK, phospho-JNK, phospho-IκBα, NF-κB p65 and phospho-NF-κB p65 (1:2000, Cell Signaling Technology, USA) and GAPDH/β-actin (1:5000, Santa Cruz Biotechnology, USA) overnight at 4 °C, respectively. After incubation, the immunoblot was washed three times with TBST for 5 min each time, and incubated with secondary antibody (1:5000, Cell Signaling Technology, USA) at room temperature for 1 h. Signals were measured by enhanced chemiluminescence kit in a dark room after washing three times with TBST for 10 min each time (TIANGEN, China).
# [2] = system: P-ERK2; assay: Western blot, LPS-induced P-ERK2 in peritoneal macrophages; format: cell-based, mouse; settings: 20 μg/mL peptide, 100 ng/mL LPS, 30 min, band density ratio to β-actin
# Protocol: as §1
# [3] = system: P-p38; assay: Western blot, LPS-induced P-p38 in peritoneal macrophages; format: cell-based, mouse; settings: 20 μg/mL peptide, 100 ng/mL LPS, 30 min, band density ratio to β-actin
# Protocol: as §1
# [4] = system: P-IκBα; assay: Western blot, LPS-induced P-IκBα in peritoneal macrophages; format: cell-based, mouse; settings: 20 μg/mL peptide, 100 ng/mL LPS, 30 min, band density ratio to β-actin
# Protocol: as §1
# [5] = system: TNF-α production; assay: LPS-stimulated TNF-α production in peritoneal macrophages (ELISA); format: cell-based, mouse; settings: 20 μg/mL peptide, 100 ng/mL LPS, 6 h
# Protocol: (§2) Cells were incubated with peptides (0, 5, 10, and 20 μg/mL) with or without 100 ng/mL LPS (from E. coli 0111:B4, Sigma-Aldrich, USA) for 6 h. After treatment, culture medium was collected for TNF-α, IL-1β and IL-6 quantification using enzyme-linked immunosorbent assay (ELISA) kits (Dakewei, China). Cells were washed with ice-cold PBS and lysed by Trizol reagent (Life Tech, USA). Total RNA was extracted for cDNA synthesis to quantify TNF-α, IL-1β and IL-6 transcription levels by qPCR as described in qPCR section.
# [6] = system: P-ERK1; assay: Western blot, LPS-induced P-ERK1 in peritoneal macrophages; format: cell-based, mouse; settings: 20 μg/mL peptide, 100 ng/mL LPS, 30 min, band density ratio to β-actin
# Protocol: as §1
# [7] = system: P-JNK1; assay: Western blot, LPS-induced P-JNK1 in peritoneal macrophages; format: cell-based, mouse; settings: 20 μg/mL peptide, 100 ng/mL LPS, 30 min, band density ratio to β-actin
# Protocol: as §1
# [8] = system: IL-1β production; assay: LPS-stimulated IL-1β production in peritoneal macrophages (ELISA); format: cell-based, mouse; settings: 20 μg/mL peptide, 100 ng/mL LPS, 6 h
# Protocol: as §2
# [9] = system: nitrite production; assay: LPS-stimulated nitrite (NO) production in peritoneal macrophages; format: cell-based, mouse; settings: 100 ng/mL LPS, 24 h
# Protocol: (§3) Cells were incubated with peptides (0, 5, 10, and 20 μg/mL) in the presence or absence of LPS (100 ng/mL, from Escherichia coli 0111:B4, Sigma-Aldrich, USA). After 6-h incubation, cells in one plate were washed twice with ice-cold PBS and lysed by Trizol reagent (Life Tech, USA) for total RNA extraction. PrimeScript® Reverse Transcriptase Kit (Takara, Japan) was used to synthesize cDNA for qPCR to examine the transcription levels of inducible nitric oxide synthase (iNOS), which is necessary for NO production. After 24-h incubation, culture medium of each wells of another plate was harvested for nitrite detection, which indirectly reflected the NO production. Nitrite accumulation levels were determined by NO detection kit (Beyotime, China) following the kit instruction.
# [10] = system: P-p65; assay: Western blot, LPS-induced P-p65 in peritoneal macrophages; format: cell-based, mouse; settings: 20 μg/mL peptide, 100 ng/mL LPS, 30 min, band density ratio to β-actin
# Protocol: as §1
# [11] = system: mouse peritoneal macrophages; settings: CCK-8, 24 h, concentration as high as 200 μg/mL
# Protocol: (§4) Mouse peritoneal macrophages were prepared according to previous method. Brewer thioglycollate medium (3 %, w/v, Sigma-Aldrich, USA) was intraperitoneally injected to C57BL/6 mouse. After 3 days, the mouse was euthanized and intraperitoneally injected with 20 mL RPMI-1640 medium to collect peritoneal macrophages. RAW264.7 cells were cultured in RPMI 1640 medium (10 % FBS, 100 U/mL penicillin and 100 μg/mL streptomycin, Gibco, USA) at 37 °C humidified with 5 % CO2. Mouse macrophages, peritoneal macrophages and RAW264.7 cells, were seeded in a 96-well (2 × 10^4 cells/well) plate, and cultured in RPMI 1640 medium (100 μL) supplemented with 2 % FBS, 100 U/mL penicillin and 100 μg/mL streptomycin (Gibco, USA) at 37 °C in a humidified 5 % CO2 incubator. The cytotoxicity of cecropin-TY1 against mouse macrophages was determined by Cell Counting Kit-8 assay (CCK-8) following the kit instruction. In brief, serial 2-fold peptide dilutions were added to each well, and control wells received the same volume of phosphate-buffered solution (PBS, 8 g/L NaCl, 0.2 g/L KCl, 0.2 g/L KH2PO4, 2.89 g/L Na2HPO4 · 12H2O, pH 7.4). After 24-h incubation, CCK-8 solution (10 μL/well) was added and incubated for an additional 4 h. The absorbance at 450 nm was monitored on a microplate reader (Epoch Etock, BioTek, USA).
# [12] = system: RAW264.7 cells; settings: CCK-8, 24 h, concentration as high as 200 μg/mL
# Protocol: as §4
# [13] = system: IL-6 production; assay: LPS-stimulated IL-6 production in peritoneal macrophages (ELISA); format: cell-based, mouse; settings: 20 μg/mL peptide, 100 ng/mL LPS, 6 h
# Protocol: as §2
# [14] = system: iNOS transcription; assay: LPS-stimulated iNOS mRNA transcription in peritoneal macrophages (qPCR); format: cell-based, mouse; settings: 100 ng/mL LPS, 6 h
# Protocol: (§5) qPCR was performed using SYBR green master mix (Takara, Japan) on a Realplex Mastercycler real-time PCR system (Eppendorf, Germany) according to the manufacturer’s instruction. The gene transcription levels were normalized to GAPDH or β-actinas as illustrated in figure legends and calculated by ΔΔCt method. The accuracy of qPCR results were checked by melting curve analysis. qPCR primers were listed in Additional file 1: Table S1.
# as §3
# [15] = system: IL-1β transcription; assay: LPS-stimulated IL-1β transcription in peritoneal macrophages (qPCR); format: cell-based, mouse; settings: 20 μg/mL peptide, 100 ng/mL LPS, 6 h
# Protocol: as §5, §2
substance,measurement,setting,value
"GWLKKIGKKIERVGQNVRNAAISTLPIAQGAAGVAGALN-NH2 [cecropin-TY1, cecropin antimicrobial peptide from salivary glands of horsefly Tabanus yao, 39 residues, C-terminally amidated, synthesized]",inhibition of LPS-induced P-JNK2 expression,[1],66.1%
same,inhibition of LPS-induced P-ERK2 expression,[2],84.9%
same,inhibition of LPS-induced P-p38 expression,[3],46.4%
same,inhibition of LPS-induced P-IκBα expression,[4],74.8%
same,reduction of LPS-induced TNF-α production,[5],72.1%
same,inhibition of LPS-induced P-ERK1 expression,[6],75.5%
same,inhibition of LPS-induced P-JNK1 expression,[7],61.9%
same,reduction of LPS-induced IL-1β production,[8],63.4%
same,attenuation of LPS-induced nitrite production,[9]; 5 μg/mL peptide,about 40.0%
same,attenuation of LPS-induced nitrite production,[9]; 10 μg/mL peptide,~63.7%
same,attenuation of LPS-induced nitrite production,[9]; 20 μg/mL peptide,~75.0%
same,inhibition of LPS-induced P-p65 expression,[10],55.9%
same,cytotoxicity (cell viability),[11],didn’t show any cytotoxicity
same,cytotoxicity (cell viability),[12],didn’t show any cytotoxicity
same,reduction of LPS-induced IL-6 production,[13],76.2%
same,attenuation of LPS-activated iNOS transcription,[14]; 5 μg/mL peptide,58.8%
same,attenuation of LPS-activated iNOS transcription,[14]; 10 μg/mL peptide,68.7%
same,attenuation of LPS-activated iNOS transcription,[14]; 20 μg/mL peptide,84.2%
same,attenuation of LPS-stimulated IL-1β transcription,[15],67.5%
